Results taken from the supplement of paper PMC4862054.

Legend:
Conditions in all cases: incubation time: 72 h
CAL-85-1 [1] = experiment: normalised response (% of control), CellTox Green; higher = less cell death (100 = DMSO, 0 = benzethonium chloride kill control)
In short: (§1)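 Breast cancer cell lines, seeded at 20 µl suspension per well, were incubated for 72 h in 384-well plates containing compound at 5 concentrations. These concentrations rose in 10-fold steps over a 10,000-fold range set for each compound. CellTox Green fluorescence (485/520 nm) was read, then CellTiter-Glo luminescence after 10 min at room temperature, and each plate was normalised to 0.1 % DMSO (100) and a positive kill control (0). Values are normalised signals, each at one concentration.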

MDA-MB-436 [2] = experiment: as above
In short: as §1

HCC1937 [3] = experiment: as above
In short: as §1

CAL-148 [4] = experiment: as above
In short: as §1

Hs578T [5] = experiment: as above
In short: as §1

HDQ-P1 [6] = experiment: as above
In short: as §1

HCC1599 [7] = experiment: as above
In short: as §1

CAL-120 [8] = experiment: as above
In short: as §1

BT-474 [9] = experiment: as above
In short: as §1

HCC1143 [10] = experiment: as above
In short: as §1

CAL-51 [11] = experiment: as above
In short: as §1

MCF-10A [12] = experiment: as above
In short: as §1

MDA-MB-231 [13] = experiment: as above
In short: as §1

BT-549 [14] = experiment: as above
In short: as §1

MDA-MB-468 [15] = experiment: as above
In short: as §1

DU-4475 [16] = experiment: as above
In short: as §1

MDA-MB-453 [17] = experiment: as above
In short: as §1

MFM-223 [18] = experiment: as above
In short: as §1

CAL-85-1 [19] = experiment: normalised response (% of control), CellTiter-Glo; higher = more viable cells (100 = DMSO, 0 = benzethonium chloride kill control)
In short: as §1

MDA-MB-436 [20] = experiment: as above
In short: as §1

HCC1937 [21] = experiment: as above
In short: as §1

CAL-148 [22] = experiment: as above
In short: as §1

Hs578T [23] = experiment: as above
In short: as §1

HDQ-P1 [24] = experiment: as above
In short: as §1

HCC1599 [25] = experiment: as above
In short: as §1

CAL-120 [26] = experiment: as above
In short: as §1

BT-474 [27] = experiment: as above
In short: as §1

HCC1143 [28] = experiment: as above
In short: as §1

CAL-51 [29] = experiment: as above
In short: as §1

MCF-10A [30] = experiment: as above
In short: as §1

SK-BR-3 = experiment: as above
In short: as §1

MDA-MB-231 [31] = experiment: as above
In short: as §1

BT-549 [32] = experiment: as above
In short: as §1

MDA-MB-468 [33] = experiment: as above
In short: as §1

DU-4475 [34] = experiment: as above
In short: as §1

MDA-MB-453 [35] = experiment: as above
In short: as §1

MFM-223 [36] = experiment: as above
In short: as §1

Row | SMILES | normalised response (CAL-85-1 [1]) [%] | normalised response (MDA-MB-436 [2]) [%] | normalised response (HCC1937 [3]) [%] | normalised response (CAL-148 [4]) [%] | normalised response (Hs578T [5]) [%] | normalised response (HDQ-P1 [6]) [%] | normalised response (HCC1599 [7]) [%] | normalised response (CAL-120 [8]) [%] | normalised response (BT-474 [9]) [%] | normalised response (HCC1143 [10]) [%] | normalised response (CAL-51 [11]) [%] | normalised response (MCF-10A [12]) [%] | normalised response (MDA-MB-231 [13]) [%] | normalised response (BT-549 [14]) [%] | normalised response (MDA-MB-468 [15]) [%] | normalised response (DU-4475 [16]) [%] | normalised response (MDA-MB-453 [17]) [%] | normalised response (MFM-223 [18]) [%] | normalised response (CAL-85-1 [19]) [%] | normalised response (MDA-MB-436 [20]) [%] | normalised response (HCC1937 [21]) [%] | normalised response (CAL-148 [22]) [%] | normalised response (Hs578T [23]) [%] | normalised response (HDQ-P1 [24]) [%] | normalised response (HCC1599 [25]) [%] | normalised response (CAL-120 [26]) [%] | normalised response (BT-474 [27]) [%] | normalised response (HCC1143 [28]) [%] | normalised response (CAL-51 [29]) [%] | normalised response (MCF-10A [30]) [%] | normalised response (SK-BR-3) [%] | normalised response (MDA-MB-231 [31]) [%] | normalised response (BT-549 [32]) [%] | normalised response (MDA-MB-468 [33]) [%] | normalised response (DU-4475 [34]) [%] | normalised response (MDA-MB-453 [35]) [%] | normalised response (MFM-223 [36]) [%]
1 | CC(=O)OC[C@H]1O[C@@H]([S-])[C@H](OC(C)=O)[C@@H](OC(C)=O)[C@@H]1OC(C)=O.CCP(CC)CC.[Au+] [Auranofin] (250 nM) | 120 | 109 | 108 | 107 | 103 | 115 | 104 | 107 | 95.5 | 123 | 80.4 | 115 | 125 | 103 | 79.5 | 110 | 105 | 98.4 | 93.2 | 90.7 | 87.4 | 101 | 97.4 | 101 | 112 | 99.4 | 99 | 91.8 | 46.3 | 118 | 99.8 | 101 | 68.9 | 18.5 | 102 | 90.7 | 98.5
2 | O=S(=O)(c1cccc2cnccc12)N1CCCNCC1 [Fasudil] (5000 nM) | 102 | 95.3 | 109 | 98.2 | 66 | 75.7 | 103 | 94.5 | 97.1 | 98.9 | 110 | 83.4 | 97.6 | 99.9 | 70.9 | 99 | 100 | 94.8 | 122 | 113 | 105 | 97.1 | 99.7 | 101 | 101 | 89.4 | 96.5 | 96.3 | 94.9 | 89 | 107 | 106 | 95.9 | 105 | 96.8 | 95.7 | 102
